Assay [1] relates to endogenous EGFR in COS-7 cells. The assay can be described thus: EGF-stimulated ERK1/2 phosphorylation in COS-7 cells expressing HA-CRF1R. It counts as cell-based. The procedure: COS-7 cells (from the American Type Culture Collection) were cultured at 37°C in a humidified atmosphere of 95% air, 5% CO2, in DMEM supplemented with 10% FBS, 100 μg/ml streptomycin, and 100 units/ml penicillin (COS-7 growth medium). Transient transfections were performed using LipofectAMINE (Life Technologies: Gaithersburg, MD) as described previously ([27]). Cells were seeded at 8 × 10^5 cells/10-cm dish in COS-7 medium and cultured for 3 days before transfection. COS-7 cells were transfected in 5 ml/dish OptiMEM containing 10 μg/ml LipofectAMINE with empty vector, pcDNA3 encoding the HA-CRF1R or the HA-CRF1R-Δ386 mutant. […] After replacing the transfection medium with fresh growth medium, transfected COS-7 cells were cultured for 1 day. […]
The protocols for measuring total and phosphorylated ERK1/2, c-Src, PYK2, Akt, and EGFR have been previously published ([28], [29]). […] The labeled bands were quantified using the Quantity One 4.6.3 software program (Bio-Rad).
(§1) Total cell lysates were separated by SDS-PAGE and analyzed by immunoblotting with anti-p-ERK1/2 Thr^202/Tyr^204 (A–D) or anti-p-EGFR Tyr^1068 (E), as described in Materials and Methods. ERK1/2 and EGFR phosphorylation were quantitated by densitometry, and mean values were plotted from three to five independent experiments.

The test system of assay [2] is CRF1R-mediated ERK1/2 phosphorylation. The assay can be described thus: Modulation of CRF-stimulated ERK1/2 phosphorylation in COS-7 cells expressing HA-CRF1R. It counts as cell-based. As for the experimental part: (§2) Plasmid pRK5 encoding the carboxyl terminus of βARK that contains its βγ-binding domain (ct-βARK) was kindly provided by Dr. W. Koch (Center for Translational Medicine, Temple University, Philadelphia, PA), which is a scavenger for G protein βγ subunits ([25]). […] Plasmid pUSEamp encoding dominant-negative Akt-K179M (dn-Akt) was from Upstate Biotechnology (Lake Placid, NY).
(§3) COS-7 cells (from the American Type Culture Collection) were cultured at 37°C in a humidified atmosphere of 95% air, 5% CO2, in DMEM supplemented with 10% FBS, 100 μg/ml streptomycin, and 100 units/ml penicillin (COS-7 growth medium). Transient transfections were performed using LipofectAMINE (Life Technologies: Gaithersburg, MD) as described previously ([27]). Cells were seeded at 8 × 10^5 cells/10-cm dish in COS-7 medium and cultured for 3 days before transfection. COS-7 cells were transfected in 5 ml/dish OptiMEM containing 10 μg/ml LipofectAMINE with empty vector, pcDNA3 encoding the HA-CRF1R or the HA-CRF1R-Δ386 mutant. […] After replacing the transfection medium with fresh growth medium, transfected COS-7 cells were cultured for 1 day. Subsequently, cells were re-seeded in 6-well plates and cultured for an additional day prior to the experiment.
(§4) The protocols for measuring total and phosphorylated ERK1/2, c-Src, PYK2, Akt, and EGFR have been previously published ([28], [29]). After cells were cultured to 60–70% confluence, they were serum-deprived for 24 h. On the day of the experiment, cells were treated with the indicated ligands and inhibitors. […] After treatment, cells were placed on ice, the media was aspirated, and the cells were washed twice with ice-cold PBS and lysed in 100 μl of Laemmli sample buffer 1X. The lysates were briefly sonicated, heated at 95°C for 5 min, and centrifuged for 5 min at 14,000 rpm. Resulting supernatants were loaded in separate lanes of a 10% SDS-PAGE gels and electrophoresed. Next, Western transfer on to PDVF membranes was completed. The Western blots were then probed with specific antibodies targeting phosphorylated and non-phosphorylated forms of ERK1/2, c-Src, PYK2, Akt, and EGFR for primary immunodetection. After blots were probed with horseradish peroxidase-conjugated secondary antibody, protein bands were visualized with enhanced chemiluminescence ECL reagent (Amersham Pharmacia Biotech, Piscataway, NJ or Pierce Biotechnology, Rockford, IL) and scanned using the GS-800 Calibrated Imaging Densitometer (Bio-Rad). The labeled bands were quantified using the Quantity One 4.6.3 software program (Bio-Rad).
Total cell lysates were separated by SDS-PAGE and analyzed by immunoblotting with anti-p-ERK1/2 Thr^202/Tyr^204, as described in Materials and Methods. ERK1/2 phosphorylation was quantitated by densitometry, and mean values were plotted from five independent experiments.
as §1
Total cell lysates were separated by SDS-PAGE and analyzed by immunoblotting with anti-p-ERK1/2 Thr^202/Tyr^204, as described in Materials and Methods. ERK1/2 phosphorylation was quantitated by densitometry, and mean values were plotted from three to five independent experiments.

Assay [3] concerns CRF1R-mediated Akt phosphorylation. Put plainly: CRF-induced Akt phosphorylation at Ser473 in COS-7 cells expressing HA-CRF1R. It counts as cell-based, human. The conditions noted are these: 100 nM CRF, 5 min. As for the experimental part:
as §2, §3
as §4, with “After blots were probed with horseradish peroxidase-conjugated secondary antibody, protein bands were visualized with enhanced chemiluminescence ECL reagent (Amersham Pharmacia Biotech, Piscataway, NJ or Pierce Biotechnology, Rockford, IL) and scanned using the GS-800 Calibrated Imaging Densitometer (Bio-Rad).” left out
Figure 7 CRF mediates Akt activation. […] Total cell lysates were separated by SDS-PAGE and analyzed by immunoblotting with anti-p-Akt Ser^473, as described in Materials and Methods. Akt phosphorylation was quantitated by densitometry, and mean values were plotted from three to five independent experiments. […]

The target of assay [4] is HA-epitope tagged human CRF1 receptor (human). The assay can be described thus: co-IP; HA-CRF1R immunoprecipitated with anti-HA monoclonal antibody (HA.11) and protein A/G PLUS-Agarose from 1% Nonidet P-40 lysates (50 mM Tris-HCl, 150 mM NaCl, pH 7.4) of transfected COS-7 cells, serum-deprived 24 h, untreated or treated with 100 nM CRF for 10 min at 37°C; blots probed for EGFR and HA, stripped and reprobed for c-Src; densitometry.

Experimental findings from article PMC6921279 (Frontiers in Endocrinology, 2019) are described below.

As for EGF: epidermal growth factor, the “persistence of ERK1/2 phosphorylation” value in assay [1] (10 ng/ml EGF) was “at least 30 min”. Besides, the “EC50 for EGF-induced ERK1/2 phosphorylation” value in assay [1] (EGF 0–100 ng/ml, 10 min) turned out to be 0.23 ng/mL.
In the case of `COc1cc2ncnc(Nc3cccc(Cl)c3)c2cc1OC` [AG1478], in assay [2] (AG1478 100 nM, 100 nM CRF, 5 min), the “effect on CRF-stimulated ERK1/2 phosphorylation” value is listed as “abolished phosphorylation of ERK1/2”. Moreover, in assay [2] (COS-7, AG1478 0–1,000 nM, 30 min pretreatment, 100 nM CRF, 5 min, read-out: IC50, inhibition of CRF-stimulated ERK1/2 phosphorylation), the IC50 stood at 10 nM. The inhibition at 0.1 µM in assay [2] (Homo sapiens, COS-7, 100 nM AG1478, 30 min pretreatment, 100 nM CRF, 5 min, read-out: inhibition of CRF-induced maximal ERK1/2 phosphorylation) was approximately 80%. Also, in assay [3] (AG1478 100 nM), the “decrease of CRF-stimulated Akt phosphorylation” value is reported as 25%.
On to `O=c1cc(N2CCOCC2)oc2c(-c3ccccc3)cccc12` [LY294002], for which the “effect on CRF-stimulated phosphorylation of ERK1/2” value in assay [2] (LY294002 pretreatment (discussion)) was “inhibited CRF-stimulated phosphorylation of ERK1/2 and Akt”. In addition, in assay [3] (LY294002 10 μM, 30 min pretreatment), the “effect on CRF1R-mediated Akt signaling activation” value is on record as “abolished CRF1R-mediated Akt signaling activation”.
On to `Nc1ncnc2c1ncn2[C@@H]1O[C@@H]2COP(O)(=S)O[C@H]2[C@H]1O` (stereo partly shown) [Rp-cAMP], for which, in assay [2] (Rp-cAMP 0–100 μM, 30 min pretreatment, 100 nM CRF, 5 min), the “effect on CRF-stimulated ERK1/2 activation” value is recorded as “the magnitude of CRF1R-mediated activation of ERK1/2 was similar”.
On to “dn-Akt: plasmid pUSEamp encoding dominant-negative Akt-K179M”, for which, in assay [2] (dn-Akt (K179M) co-transfection, 100 nM CRF), the “effect on ERK1/2 activation by CRF” value was “had no significant effect on ERK1/2 activation after stimulation with CRF”.
Regarding epidermal growth factor receptor, in assay [4], the fold increase of co-precipitated EGFR over control (100 nM CRF, 10 min, against unstimulated cells) is 2.5 fold.
As to c-Src (enzyme), the fold increase of co-precipitated Src over control (100 nM CRF, 10 min, against unstimulated cells) in assay [4] was 8 fold.
With `CNC(=O)[C@H](Cc1ccccc1)NC(=O)[C@H](CC(C)C)[C@H](CSc1cccs1)C(=O)NO` [batimastat], the “effect on basal and CRF-stimulated ERK1/2 phosphorylation” value in assay [2] (batimastat 5 μM, 30 min pretreatment, 100 nM CRF, 5 min) was “not altered”.
